Values quoted from earlier work as cited in patent US20140350097A1, “TREATMENT OF HYPOTENSION ASSOCIATED WITH HEMODIALYSIS” (priority 2013, published 2014).

Tests used:
[1] = system: LPS-induced hypotension in animals; settings: intravenous injection; cited from earlier work
[2] = system: normal animals and animals with hypotensive shock; settings: cited from earlier work

In the case of `CNC(=N)NCCC[C@H](N)C(=O)O` [N-monomethyl-L-arginine, N^G-monomethyl-L-arginine], the “effect on LPS-induced hypotension” value [1] is listed as “reverse LPS-induced hypotension” and the “effect on blood pressure” value [2] is listed as “can cause hypertension”.
